In brackets after ≈: the same amount, converted by molar mass.
What was measured:
Escherichia coli [1] = test: Antibacterial activity against tetracycline resistant Escherichia coli; assay type: functional
Escherichia coli [2] = test: Antibacterial activity against tetracycline resistant Escherichia coli 1-849; assay type: functional
MDA-MB-231 = test: Inhibition of cell migration in human MDA-MB-231 cells; assay type: functional, cell-based

Row | Compound | MIC (Escherichia coli [1]) [µM] | further results
1 | NC[C@@H]1O[C@H](O[C@H]2[C@@H](O)[C@H](O[C@@H]3[C@@H](O)[C@H](N)C[C@H](N)[C@H]3O[C@H]3O[C@H](CN)[C@@H](O)[C@H](O)[C@H]3N)O[C@@H]2CO)[C@H](N)[C@@H](O)[C@@H]1O [FRAMYCETIN] | 2 (≈ 1.23 µg/mL) | 
2 | C[C@H]1O[C@@H](O[C@@H]2[C@@H](O)[C@H](N)C[C@H](N)[C@H]2O[C@H]2O[C@H](CN)[C@@H](O)[C@H](O)[C@H]2N)[C@H](O)[C@@H](O)[C@H]1N | 9 (≈ 4.21 µg/mL) | 
3 | C[C@H]1O[C@@H](O[C@@H]2[C@@H](O)[C@H](N)C[C@H](N)[C@H]2O[C@H]2O[C@H](CN)[C@@H](O)[C@H](O)[C@H]2N)[C@H](O)[C@@H](O)[C@@H]1N | 9 (≈ 4.21 µg/mL) | 
4 | CON(CC(=O)Nc1ccc2c(c1O)C(=O)C1=C(O)[C@]3(O)C(=O)C(C(N)=O)=C(O)[C@@H](N(C)C)[C@@H]3[C@@H](O)[C@@H]1[C@H]2C)[C@H]1O[C@H](CO)[C@@H](O)[C@H](O)[C@H]1N |  | MIC (Escherichia coli [2]): 4 µg/mL (≈ 5.65 µM)
5 | CCCCCCCCCCCCCC(=O)NCCNC(=O)C(C)(C)C(=O)NCCO[C@@H]1O[C@H](COC(C)=O)[C@@H](O[C@@H]2O[C@H](COC(C)=O)[C@H](OC(C)=O)[C@H](OC(C)=O)[C@H]2OC(C)=O)[C@H](OC(C)=O)[C@H]1OC(C)=O |  | IC50 (MDA-MB-231): > 50 µM
